Each structure is given as a SMILES string.

For this experiment, the target named is T1, Signal transducer and activator of transcription 6 (Homo sapiens, UniProt P42226).
T1 sequence (P42226 whole entry): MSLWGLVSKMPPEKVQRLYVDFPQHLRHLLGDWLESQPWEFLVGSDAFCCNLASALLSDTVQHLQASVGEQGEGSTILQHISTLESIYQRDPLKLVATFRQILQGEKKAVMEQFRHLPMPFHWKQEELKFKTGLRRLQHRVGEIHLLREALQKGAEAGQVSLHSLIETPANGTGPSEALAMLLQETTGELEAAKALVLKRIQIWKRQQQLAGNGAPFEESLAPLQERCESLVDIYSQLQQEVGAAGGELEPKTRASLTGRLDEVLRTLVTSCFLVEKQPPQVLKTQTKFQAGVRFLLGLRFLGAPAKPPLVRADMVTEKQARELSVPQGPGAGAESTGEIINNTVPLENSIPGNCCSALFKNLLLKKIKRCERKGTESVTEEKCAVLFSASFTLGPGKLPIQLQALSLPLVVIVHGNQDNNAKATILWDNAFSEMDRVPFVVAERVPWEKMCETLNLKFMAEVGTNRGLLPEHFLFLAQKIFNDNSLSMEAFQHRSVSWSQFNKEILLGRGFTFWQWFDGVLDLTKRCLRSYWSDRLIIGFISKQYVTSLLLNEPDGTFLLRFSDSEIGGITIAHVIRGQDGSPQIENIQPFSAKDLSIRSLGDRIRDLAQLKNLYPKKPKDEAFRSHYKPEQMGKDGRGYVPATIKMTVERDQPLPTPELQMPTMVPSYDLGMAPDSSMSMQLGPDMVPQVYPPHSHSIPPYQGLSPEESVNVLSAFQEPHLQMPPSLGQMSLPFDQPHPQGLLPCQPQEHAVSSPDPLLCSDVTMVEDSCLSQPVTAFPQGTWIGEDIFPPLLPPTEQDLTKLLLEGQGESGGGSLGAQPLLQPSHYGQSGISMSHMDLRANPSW
Put plainly: Inhibition of IL-4 induced STAT6 signaling in human HepG2 cells harboring pRL-EF1alpha, pGL3-TK-7xN4 and TOPO-Stat6 plasmid assessed as luciferase activity incubated for 24 hrs.

Regarding `C/C1=C\C[C@H](O)[C@H](C)[C@@H](C)OC(=O)Cc2c(Cl)c(O)cc(O)c2C1=O`, the IC50 came out at 50 nM.
The same measure for `C/C1=C\C[C@@H](O)[C@H](C)[C@H](C)OC(=O)Cc2c(Cl)c(O)cc(O)c2C1=O`: 1000 nM; for `C/C1=C\C[C@H](O)[C@H](C)[C@H](C)OC(=O)Cc2c(Cl)c(O)cc(O)c2C1=O`: 200 nM; for `C/C1=C/C[C@@H](O)[C@H](C)[C@@H](C)OC(=O)Cc2c(Cl)c(O)cc(O)c2C1=O`: 72 nM.
For the compound `C/C1=C/C[C@H](O)[C@H](C)[C@@H](C)OC(=O)Cc2c(Cl)c(O)cc(O)c2C1=O`, the IC50 was determined as 64 nM.
